Reference: US20080242649A1, “New Combination 665” (priority 2007, published 2008)

Legend:
Settings in all cases: compound and its salts
[1] = target: T1, recombinant human adrenergic beta 1 receptors (Homo sapiens, UniProt P08588); assay: Adrenergic β1 [125I]-Iodocyanopindolol binding
T1 construct: purchased Euroscreen
Procedure: (§1) Membranes containing recombinant human adrenergic beta 1 receptors were obtained from Euroscreen. These were diluted in Assay Buffer (50 mM HEPES, 1 mM EDTA, 120 mM NaCl, 0.1% gelatin, pH 7.4) to provide a final concentration of membranes that gave a clear window between maximum and minimum specific binding.
(§2) Assays were performed in U-bottomed 96-well polypropylene plates. 10 PL [1251]-Iodocyanopindolol (0.036 nM final concentration) and 10 μL of Compound A (10× final concentration) were added to each test well. For each assay plate 8 replicates were obtained for [^125]-Iodocyanopindolol binding in the presence of 10 μL vehicle (10% (v/v) DMSO in Assay Buffer; defining maximum binding) or 10 μL Propranolol (10 μM final concentration; defining non-specific binding (NSB)). Membranes were then added to achieve a final volume of 100 μL. […] Five washes with 250 μL wash buffer (50 mM HEPES, 1 mM EDTA, 120 mM NaCl, pH 7.4) were performed at 4° C. to remove unbound radioactivity. […] The plates were sealed (TopSeal A) and filter-bound radioactivity was measured with a scintillation counter (TopCount, Packard BioScience) using a 3-minute counting protocol.
(§3) Total specific binding (B0) was determined by subtracting the mean NSB from the mean maximum binding. […]

[2] = target: T2, recombinant human Dopamine Subtype D2s receptors (Homo sapiens, UniProt P14416); assay: Dopamine D2 [3H]-spiperone binding
T2 construct: purchased Perkin Elmer
T2 sequence (P14416 1-414 isoform P14416-2): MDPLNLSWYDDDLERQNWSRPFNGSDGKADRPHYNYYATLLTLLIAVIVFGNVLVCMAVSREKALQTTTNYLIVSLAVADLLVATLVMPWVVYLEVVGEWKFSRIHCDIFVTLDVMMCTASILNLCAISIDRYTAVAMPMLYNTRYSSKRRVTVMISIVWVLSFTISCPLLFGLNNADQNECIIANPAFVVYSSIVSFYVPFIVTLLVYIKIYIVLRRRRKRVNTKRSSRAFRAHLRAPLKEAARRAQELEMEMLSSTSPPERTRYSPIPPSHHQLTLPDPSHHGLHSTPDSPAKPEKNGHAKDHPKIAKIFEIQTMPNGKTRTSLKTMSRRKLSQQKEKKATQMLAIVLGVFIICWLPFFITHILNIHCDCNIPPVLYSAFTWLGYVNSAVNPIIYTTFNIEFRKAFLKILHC
Procedure: as §1, with “Dopamine Subtype D2s” for “adrenergic beta 1”, “Perkin Elmer.” for “Euroscreen.”
Assays were performed in U-bottomed 96-well polypropylene plates. 30 PL [^3H]-spiperone (0.16 nM final concentration) and 30 μL of Compound A (10× final concentration) were added to each test well. For each assay plate 8 replicates were obtained for [^3H]-spiperone binding in the presence of 30 PL vehicle (10% (v/v) DMSO in Assay Buffer; defining maximum binding) or 30 μL Haloperidol (10 PM final concentration; defining non-specific binding (NSB)). Membranes were then added to achieve a final volume of 300 μL. […] Five washes with 250 μL wash buffer (50 mM HEPES, 1 mM EDTA, 120 mM NaCl, pH 7.4) were performed at 4° C. to remove unbound radioactivity. […] The plates were sealed (TopSeal A) and filter-bound radioactivity was measured with a scintillation counter (TopCount, Packard BioScience) using a 3-minute counting protocol.
as §3

[3] = target: T3, recombinant human α1D receptor (Homo sapiens, UniProt P25100); assay: Adrenergic α1D [3H]-prazosin binding, HEK293 membranes
T3 construct: expressed in transfected cells; host or cells: HEK293 cells (membranes)
T3 sequence (P25100 1-572): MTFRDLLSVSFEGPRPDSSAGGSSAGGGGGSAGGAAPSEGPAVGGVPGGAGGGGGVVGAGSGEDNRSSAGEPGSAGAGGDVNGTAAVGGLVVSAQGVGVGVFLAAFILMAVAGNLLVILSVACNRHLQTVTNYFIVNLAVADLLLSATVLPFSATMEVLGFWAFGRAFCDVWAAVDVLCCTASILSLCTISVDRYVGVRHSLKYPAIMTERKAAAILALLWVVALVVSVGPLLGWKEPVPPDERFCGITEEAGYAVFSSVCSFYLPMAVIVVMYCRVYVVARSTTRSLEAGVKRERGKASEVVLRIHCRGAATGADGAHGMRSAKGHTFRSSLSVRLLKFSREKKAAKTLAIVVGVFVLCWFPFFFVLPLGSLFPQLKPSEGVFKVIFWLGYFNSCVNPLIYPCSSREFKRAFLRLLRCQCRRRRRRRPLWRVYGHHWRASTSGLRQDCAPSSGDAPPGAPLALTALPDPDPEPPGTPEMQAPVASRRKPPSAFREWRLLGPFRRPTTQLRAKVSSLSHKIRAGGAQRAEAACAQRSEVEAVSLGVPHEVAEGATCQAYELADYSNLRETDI
Procedure: Membranes were prepared from human embryonic kidney 293 (HEK293) cells expressing recombinant human α1D receptor. These were diluted in Assay Buffer (50 mM HEPES, 1 mM EDTA, 0.1% gelatin, pH 7.4) to provide a final concentration of membranes that gave a clear window between maximum and minimum specific binding.
as §2, with “μL [^3H]-prazosin (0.3” for “PL [1251]-Iodocyanopindolol (0.036”, “[^3H]-prazosin” for “[^125]-Iodocyanopindolol”, “BMY7378” for “Propranolol”, “EDTA,” for “EDTA, 120 mM NaCl,”
as §3

T1 sequence (P08588 whole entry): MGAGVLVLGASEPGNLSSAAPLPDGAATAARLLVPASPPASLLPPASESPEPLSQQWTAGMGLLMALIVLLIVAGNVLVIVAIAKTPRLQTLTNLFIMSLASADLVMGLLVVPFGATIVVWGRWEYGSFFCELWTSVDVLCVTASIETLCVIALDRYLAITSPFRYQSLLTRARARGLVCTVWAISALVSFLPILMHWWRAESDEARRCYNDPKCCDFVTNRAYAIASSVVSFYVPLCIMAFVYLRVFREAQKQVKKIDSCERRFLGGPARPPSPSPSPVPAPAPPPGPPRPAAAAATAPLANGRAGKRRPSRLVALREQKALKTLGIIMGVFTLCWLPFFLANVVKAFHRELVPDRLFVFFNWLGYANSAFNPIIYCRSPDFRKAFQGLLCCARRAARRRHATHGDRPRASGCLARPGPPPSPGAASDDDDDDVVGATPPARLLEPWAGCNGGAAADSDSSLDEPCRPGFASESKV

CCN(CC)CCN(CCNCCc1ccc(O)c2[nH]c(=O)sc12)C(=O)CCOCCc1cccc2ccccc12 [N-[2-(Diethylamino)ethyl]-N-(2-{[2-(4-hydroxy-2-oxo-2,3-dihydro-1,3-benzothiazol-7-yl)ethyl]amino}ethyl)-3-[2-(1-naphthyl)ethoxy]propanamide]
≥ 10 fold: selectivity of β2 adrenoceptor agonism over adrenergic β1 [1] | selectivity of β2 adrenoceptor agonism over dopamine D2 [2] | selectivity of β2 adrenoceptor agonism over adrenergic α1D [3]
